This note sets out measurements from US20210267981A1, “COMPOUNDS FOR THE TREATMENT OF HIV INFECTION AND OTHER DISEASES CAUSED BY RNA VIRUSES” (UNIVERSIDAD CATOLICA DE VALENCIA "SAN VICENTE MARTIR", priority 2018, published 2021).

As usually defined, the Kd is the free concentration of one partner at which half of the binding sites on the other are occupied at equilibrium, for simple one-to-one binding. The CC50 is the concentration that lowers cell viability or growth by half. Usually EC50 stands for the midpoint of the concentration-response curve. The term IC50 denotes the concentration that inhibits the measured activity by half.

Where two headings read alike, the source gives them in different places.

For one data set, the system named is complete RRE-Rev complex. Kind of data set: Electrophoretic mobility shift assay (EMSA) of complete RRE-Rev complex formation. Type of data set: binding, HIV-1. The protocol:
Electrophoretic Mobility Shift Assays (EMSA).
These experiments used 78 nM of complete RRE, 1.32 μM of complete Rev, and increasing concentrations of each compound, and were carried out and analyzed as described previously in the state of the art (Prado et al., Biochem Pharmacol 107 (2016) 14-28; Fang et al., Cell 155(3) (2013) 594-605). The IC50 values were determined by measuring the area and the intensity of the band corresponding to free RRE. These experiments were performed at least three times for each compound.
The capacity of the compounds to inhibit IIB-Rev34-50 interaction was evaluated by means of an assay based on the detection, by means of fluorescence anisotropy (FA), of the shift of an FITC-labeled Rev34-50 peptide from its binding site in subdomain IIB of RRE. The capacity of the compounds to inhibit the formation of the RRE-Rev complex was evaluated by means of an electrophoretic mobility shift assay (EMSA).
(Mobility shift assays separate free from complexed probe on a gel.)

Data set [1] deals with subdomain IIB of the RRE (IIBh-19ap RNA). In words: Fluorescence intensity binding to IIBh RNA, with or without competing RNAtCys or LTRd DNA. More on the design: species or system HIV-1. As to conditions: for specificity of the interaction with IIB: 100-fold molar excess of RNAtCys or LTRd; for specificity IIB/DNA: Kd(IIBh)/Kd(IIBh + LTRd) quotient; for specificity IIB/RNA: Kd(IIBh)/Kd(IIBh + tRNA) quotient. The protocol: Depending on the absorption spectra of the compounds, these experiments measured association with IIBh-19ap or IIBh-23fl RNA sequences labeled with 2-aminopurine and fluorescein in residues A19 and U23 of the IIB loop, respectively (Prado et al., Biochem Pharmacol 107 (2016) 14-28), and were carried out in a SPECTRA GEMINI XPS plate reader (Molecular Devices, Sunnyvale, USA) or a Victor X5 plate reader (Perkin Elmer). The IIB RNA concentration in these assays was 100 nM, and the specificity of the interactions with respect to RNA and DNA was evaluated by duplicating the experiments in the presence of a 100-fold molar excess (10 μM) of RNAtCys or LTRd DNA duplex. All the fluorescence intensity experiments were performed at least three times for each compound.
The specificity of the interaction was evaluated by duplicating the experiments in the presence of a 100-fold molar excess of RNAtCys. Likewise, specificity with respect to a double-stranded DNA was evaluated by further performing the experiments with a 100-fold molar excess of a DNA duplex with 26 base pairs (identified as LTRd) containing NF-κB and Sp-1 transcription factor-binding sites (Prado et al., Biochem Pharmacol 107 (2016) 14-28). These two factors bind to the LTR promoter of HIV-1 DNA and are essential for virus replication (Jones et al., AnnuRevBiochem 63 (1994) 717-43).

The nature of data set [2]: Cell toxicity, CellTiter-Glo assay. Type of data set: cell-based. The conditions noted are these: human. From the text: (§1) Anti-HIV-1 Activity and Cell Toxicity.
(§2) The methodology used for performing and analyzing these experiments has been described previously (Prado et al., Biochem Pharmacol 107 (2016) 14-28; Gonzalez-Bulnes et al., Angewandte Chemie-International Edition 52(50) (2013) 13405-13409). Briefly, infectious supernatants were obtained from 293T cells transfected with the pNL4.3-Ren plasmid. MT-2 cells were infected with these supernatants in the presence of the compounds, and the anti-HIV activity was quantified 48 h after infection by determining luciferase activity in the cell lysates. Cell viability was evaluated in cells treated with the same compound concentrations using the CellTiter-Glo assay (Promega). The antiviral activity and cell toxicity results represent the average of at least three independent experiments.
On the technique in general: ATP-based viability assays read luminescence as a measure of living cells.

The next data set has as its system MT-2 cells. In words: Cell toxicity, CellTiter-Glo assay. In kind it is cell-based. As to conditions: CC50 versus antiviral concentration of the infection experiments.
Text: as §1, §2

The test system of data set [3] is complete HIV-1 (NL4.3-luc). Kind of data set: Cell transfection assay, full-length HIV-1 luciferase plasmid (NL4.3-luc) in MT-2 cells. Type of data set: cell-based. The protocol: Cell Transfection Assays.
MT-2 cells were transfected with plasmids containing a luciferase reporter gene the expression of which was under the control of the complete HIV-1 (NL4.3-luc) or HIV-1 LTR promoter (LTR-Luc). After transfection, the cells were treated with different compound concentrations, and the luciferase activity in the cell lysates was quantified 48 h later (Prado et al., Biochem Pharmacol 107 (2016) 14-28; Gonzalez-Bulnes et al., Angewandte Chemie-International Edition 52(50) (2013) 13405-13409).
In order to identify the target or the set of targets of the tested compounds, an assay based on the transfection of a full-length HIV-1 vector is performed. In this experiment, the entry, reverse transcription, and DNA integration phases of the viral cycle are sidestepped, such that only transcriptional or post-transcriptional events which can be blocked by the inhibitor under study are produced.

Another data set concerns IIBh RNA. In words: NMR spectroscopy of compound binding to IIBh RNA. Further details: species or system HIV-1. As to conditions: increasing ligand:RNA molar ratios. The protocol: The NMR spectra were acquired in a 500 MHz Bruker Avance spectrometer and analyzed with Topspin 3.5 (Bruker Biospin, Billerica, USA). The interaction between the tested compounds and IIBh RNA samples dissolved at a concentration of 40-60 μM were monitored as described previously in the state of the art (Prado et al., Biochem Pharmacol 107 (2016) 14-28; Gonzalez-Bulnes et al., Angewandte Chemie-International Edition 52(50) (2013) 13405-13409), using one-dimensional and two-dimensional experiments (TOCSY) at increasing ligand:RNA molar ratios.
NMR spectroscopy is then used for identifying the binding sites in the IIBh fork of the compounds. […] This compound altered the signals of residues C9, A19, C20, and U23 comprising the Rev binding site, but also disrupted the signals of the double-helix stems flanking the loop. 2a and 2b required a higher drug:RNA molar ratio to induce changes in the signals of IIBh RNA.

The mark [4] stands for this setting: IIBh-19ap, 100-fold molar excess of LTRd DNA duplex, read-out: Kd(IIBh + LTRd).
[5] abbreviates: IIBh-19ap, 100-fold molar excess of RNAtCys, read-out: Kd(IIBh + tRNA).
[6] abbreviates: Human immunodeficiency virus 1, MT2, 48 h, read-out: EC50 of transfection, HIV.
Where [7] appears, read: Human immunodeficiency virus 1, MT2, read-out: EC50 transfection assay of full-length HIV-1 vector.

On to `CN(C)CCOc1cc2c(c3ccccc13)-c1ccccc1C2=O` [Compound 1a], for which the “concentrations at which formation of RRE-Rev complexes with an unusual molecular weight was promoted” value in the data set on complete RRE-Rev complex is reported as “greater than 10 μM”. In addition, the “specificity of the interaction with IIB” value in data set [1] is “moderate specificity”. Further, the Kd came out at 2.8 µM in data set [1] (setting [4]); 2.4 µM in data set [1] (setting [5]); 1.4 µM in data set [1] (fluorescence intensity, read-out: Kd for subdomain IIB of the RRE). Besides, in data set [1], the “specificity IIB/DNA” value is recorded as 0.50. Besides, the “specificity IIB/RNA” value in data set [1] came to 0.58. For the same compound, the CC50 in data set [2] (MT-2 cells, CellTiter-Glo, read-out: CC50) was found to be 28.1 µM. Moreover, the “CC50 values fold greater than the antiviral concentrations” value with MT-2 cells turned out to be 34 fold. For the same compound, the concentration giving a half-maximal response (EC50) in data set [3] (setting [6]) is 2.5 µM; in data set [3] (setting [7]) it was 2.5 to 3.3 µM. Also, the “changes of IIBh RNA NMR signals” value with IIBh RNA is given as “widened or altered the chemical shift of IIBh resonances at low drug:RNA molar ratios”.

Turning to `Fc1nc(N2CCNCC2)c(F)c(Sc2ccc(Cl)cc2)c1F` [Compound 2a], the IC50 in the data set on complete RRE-Rev complex (78 nM RRE and 1.32 μM Rev, two independent experiments) was 4.7 µM. Also, in data set [1], the “specificity of the interaction with IIB” value was “specific”. The Kd in data set [1] (setting [4]) came to 9.2 µM; in data set [1] (setting [5]) it was 9 µM; in data set [1] (IIBh-19ap, no competitor, read-out: Kd(IIBh)), 10.8 µM. Further, the “specificity IIB/DNA” value in data set [1] is given as 1.17. Moreover, in data set [1], the “specificity IIB/RNA” value was 1.20. For the same compound, the CC50 in data set [2] stood at 43.9 µM. Moreover, the “CC50 values fold greater than the antiviral concentrations” value with MT-2 cells was 22 fold. Moreover, the EC50 was 3.3 µM in data set [3] (setting [6]) and 2.5 to 3.3 µM in data set [3] (setting [7]). Besides, in the data set on IIBh RNA, the “changes of IIBh RNA NMR signals” value is given as “affected the signals of residues located in the stems flanking the internal loop”.
